Consider 1 compound from publication PMC12292862 (Biomedicines, 2025).

One assay has as its system COX-2. As to the kind of experiment: In vitro colorimetric COX (ovine) inhibitor-screening assay, COX-2. The format is biochemical. The settings on record: ovine COX-2, tested at 50, 100 and 150 µg/mL. The method, then:
The test compounds’ ability to suppress COX-1 and COX-2 was evaluated using a colorimetric COX (ovine) inhibitor-screening method (Cayman Chemical, Item Number 760111). In brief, 150 μL of assay buffer, 10 μL of heme, 10 μL of enzyme (COX-1 or COX-2), and 10 μL of compound (1 mg/mL) make up the reaction mixture. In a final volume of […], the test compounds were evaluated at doses of 50, 100, and 150 μg/mL. The cyclooxygenase peroxidase component is used in the experiment. By monitoring the appearance of oxidized N, N, […] (TMPD) at 590 nm, the peroxidase activity is measured […]. […] The following formula was used to determine the % COX inhibition: The COX inhibition activity percentage is equal to (1 − T/C ×100), where T is the inhibitor well’s absorbance and C is the starting activity’s absorbance at 100% without the inhibitor well.

Assay [1] relates to carrageenan-induced rat paw edema. As to the kind of experiment: Carrageenan-induced paw edema. The assay is classed as in vivo. The settings on record: compounds 200 mg/kg i.p., indomethacin 10 mg/kg, 4 h after carrageenan. From the text:
Rats’ carrageenan-induced paw edema model was used to assess the novel synthesized drugs’ anti-inflammatory properties. A total of 180–190 g of male Wistar rats were used for the experiments. In the animal house at Sohag University in Sohag, Egypt, every animal was kept in careful laboratory conditions. After being weighed and divided into six groups at random, the animals are housed for a week to reduce stress and allow them to get used to the laboratory environment. The chemicals that were synthesized were administered intraperitoneally (i.p.) to rats at a dosage of 200 mg/kg. The control group received only vehicles. […] The rats were given a 0.2 mL sub-plantar injection of a 1% (w/v) suspension of carrageenan (made in PBS) in their right hind paw thirty minutes following the injection of synthesized compounds [33]. […] The % inhibition of paw edema was calculated by the following formula [34]:%Inhibition = ((Mean edema of control group − Mean edema of test compound)/(Mean edema of control group)) × 100.
In general terms: The carrageenan paw model is a standard test of acute inflammation.

A further assay has as its system TNF-α. As to the kind of experiment: Serum TNF-α (ELISA) in carrageenan-injected rats. The format is in vivo, rat. The settings on record: compounds 200 mg/kg i.p., indomethacin 10 mg/kg, mean ± SD. The method, then:
(§1) The selective pro-inflammatory cytokines were measured quantitatively using rat-specific Enzyme-Linked Immunosorbent Assay (ELISA) kits from Thermo Scientific™ (Waltham, MA, USA) with CAT. No. ERCRP for CRP; from Elabscience with Cat. No. E-EL-R2856 for TNF-α and with Cat. No. E-EL-R0011 for IL-1α; from CUSABIO, Houston, TX, USA, with Cat. No. CSB-E04640r for IL-6; and from My BioSource Co, USA, with Cat. No. MBS825017 for IL-1β, with Cat. No. MBS753621 for rat cyclooxygenase 1, and with Cat. No. MBS266603 for rat cyclooxygenase 2. Meanwhile, an ovine COX inhibitor-screening in vitro assay (item number 760111) was obtained from Cayman Chemical (Ann Arbor, MI, USA). We purchased malondialdehyde (MDA), glutathione (GSH), and superoxide dismutase (SOD) detection kits from Nanjing Jiancheng Bio-Technology Co. Ltd. (Nanjing, China).
(§2) At the end of the experiments, the rats were subjected to anesthesia with chloroform and then sacrificed. Blood was obtained via heart puncture for biochemical analysis. Following the animals’ sacrifice, the paws were taken out, decalcified, and stored in a 10% formalin solution. To prepare the tissue samples, they were sliced into thicknesses of 5 µm. Hematoxylin and eosin dyes were used to create the histology slides, which were then examined using a photomicroscope (Meiji Techno®, Iruma, Japan) for pathological alterations. The presence of inflammation was documented. Protease/phosphatase inhibitor cocktail in cold phosphate-buffered saline (1:4) (pH 7, 0.01 mol/L) (Cat. No. PPC1010, Sigma-Aldrich) was used to homogenize each rat’s paw piece in a glass homogenizer. After filtering and centrifuging the resultant homogenate for five minutes at 5000× g, oxidative stress biomarkers like GSH, SOD, and MDA were measured. The trials were repeated three times.
Background: In an ELISA, binding on a coated surface is turned into a signal by an enzyme label.

Assay [2] concerns rat paw tissue dermal collagen. As to the kind of experiment: Sirius Red staining of dermal collagen in paw tissue. The settings on record: carrageenan-injected paw; compounds 200 mg/kg i.p., indomethacin 10 mg/kg. The assay is classed as in vivo.
The subject of a further assay is rat cyclooxygenase 2. Put plainly: COX-2 level in carrageenan-injected paw (ELISA). The format is in vivo. The settings on record: compounds 200 mg/kg i.p., indomethacin 10 mg/kg, mean ± SD. The method, then:
as §1, with “Meanwhile, an ovine COX inhibitor-screening in vitro assay (item number 760111) was obtained from Cayman Chemical (Ann Arbor, MI, USA).” left out
as §2

For a further assay, the system named is IL-1α. Put plainly: Serum IL-1α (ELISA) in carrageenan-injected rats. The format is in vivo, rat. The settings on record: compounds 200 mg/kg i.p., indomethacin 10 mg/kg, mean ± SD. As to the method:
as §1, §2

Another assay concerns rat cyclooxygenase 1. Put plainly: COX-1 level in carrageenan-injected paw (ELISA). The format is in vivo. The settings on record: compounds 200 mg/kg i.p., indomethacin 10 mg/kg, mean ± SD. As to the method: as §1, §2
The next assay deals with IL-6. As to the kind of experiment: Serum IL-6 (ELISA) in carrageenan-injected rats. The format is in vivo, rat. The settings on record: compounds 200 mg/kg i.p., indomethacin 10 mg/kg, mean ± SD. The method, then:
as §1, §2

The next assay concerns CRP. As to the kind of experiment: Serum CRP (ELISA) in carrageenan-injected rats. The assay is classed as in vivo, rat. The settings on record: compounds 200 mg/kg i.p., indomethacin 10 mg/kg, mean ± SD. As to the method:
as §1, §2

Another assay deals with IL-1β. Put plainly: Serum IL-1β (ELISA) in carrageenan-injected rats. The settings on record: compounds 200 mg/kg i.p., indomethacin 10 mg/kg, mean ± SD. The assay is classed as in vivo, rat. As to the method: as §1, §2
Assay [3] concerns rat paw tissue. Put plainly: Histopathological examination of paw tissue (HE). The assay is classed as in vivo. The settings on record: carrageenan-injected paw; compounds 200 mg/kg i.p., indomethacin 10 mg/kg.
Description: as §2

Assay [4] relates to rat paw tissue. As to the kind of experiment: Histomorphometry lesion scores of paw tissue sections. The assay is classed as in vivo. The settings on record: vs carrageenan group.

Molecules are shown by their SMILES. Entries after “also recorded” stand apart in the source; their conditions may differ. Marks after values point to notes of the source that are not given here.

For `COc1ccc2c(c1)c(CC(=O)O)c(C)n2C(=O)c1ccc(Cl)cc1` [indomethacin, reference compound], in the assay on COX-2, the “COX-2 inhibition % (mean activity)” value is on record as 97%. In addition, in [1], the “inhibition of paw edema after 4 h” value was found to be 57.66%. Moreover, the TNF-α with TNF-α is 11.30 ± 0.30 ^b pg/mL. Also, the “dermal collagen content and distribution (Sirius Red)” value in [2] was “marked dispersed collagenous fibers; also recorded: markedly dispersed and less organized”. In the assay with rat cyclooxygenase 2, this compound showed a COX-2 level of 5.11 ± 0.13 ng/mL. For the same compound, the IL-1α in the assay on IL-1α was 79.28 ± 0.55 ^b pg/mL. The same compound had a COX-1 level with rat cyclooxygenase 1 of 6.31 ± 0.08 ng/mL. Moreover, the IL-6 in the assay on IL-6 is reported as 18.49 ± 0.27 ^b pg/mL. Also, in the assay with CRP, the CRP is on record as 6.23 ± 0.22 ^b ng/mL. For the same compound, the IL-1β in the assay with IL-1β is recorded as 92.86 ± 0.47 ^b pg/mL. Also, the “histopathological findings of paw tissue (HE)” value in the assay on rat paw tissue [3] is “marked edema”. Further, the inflammation scores entry in the assay with rat paw tissue [4] (Figure 11A) is recorded as “significantly reduced inflammation scores”. The vascular alteration scores result in the assay with rat paw tissue [4] (Figure 11C) is recorded as “significantly mitigated vascular alterations”.
